Substitutions are numbered along the chain they refer to.
Key:
[1] = target: T1, AT1 S115A mutant receptor (Rattus norvegicus, UniProt P25095, S115A); assay: competition binding, S115A mutant; details: for Kd ratio relative to WT (in parentheses): S115A / WT; for Kd: S115A, COS1 membranes, read-out: Binding affinity (Kd)
T1 construct: expressed in transfected cells; host or cells: COS1
T1 sequence (P25095 1-359 S115A): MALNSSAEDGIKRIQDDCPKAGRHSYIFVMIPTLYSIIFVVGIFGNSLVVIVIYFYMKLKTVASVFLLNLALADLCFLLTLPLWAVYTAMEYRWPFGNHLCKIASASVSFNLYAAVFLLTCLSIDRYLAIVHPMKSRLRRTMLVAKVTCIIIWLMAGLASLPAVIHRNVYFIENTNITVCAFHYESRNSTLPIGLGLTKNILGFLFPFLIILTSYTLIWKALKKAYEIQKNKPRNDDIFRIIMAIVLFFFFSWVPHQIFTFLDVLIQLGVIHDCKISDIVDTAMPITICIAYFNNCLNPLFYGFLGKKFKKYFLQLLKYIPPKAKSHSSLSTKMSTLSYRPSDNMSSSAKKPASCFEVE
Experimental: (§1) The Kd and Bmax values of receptor binding were determined by ^125I-[Sar^1, Ile^8] […] Membranes expressing the WT or mutant AT1 receptors were incubated with 100 pM ^125I-[Sar^1, Ile^8] […] The binding reaction was terminated by filtering the incubation mixture through Whatman GF/C glass filters, and the residues were extensively washed further with binding buffer. The bound ligand fraction was determined from the counts per minute (cpm) remaining on the membrane. Binding kinetics values were determined as previously described.

[2] = target: T2, AT1 C76A/L112C/C289A mutant receptor (Rattus norvegicus, UniProt P25095, C289A/C76A/L112C); assay: substituted cysteine accessibility mapping (SCAM), C76A/L112C/C289A; format: binding; parameters: key to Cysteine accessibility at Leu112 compared to ligand (-): Less and More indicate that the AT1 receptor is less or more accessible to the ligand pocket, respectively; Less and More indicate that the AT1 receptor is less or more accessible to the ligand pocket, respectively; No change; details: for % inhibition of 125I-[Sar1,Ile8]Ang II binding by MTSEA+ after ligand pre-incubation: C76A/L112C/C289A mutant, 1 µM ligand, comparison in words; for Cysteine accessibility at Leu112 compared to ligand (-): SCAM, 1 µM ARB, […] MTSEA+, COS1 membranes
T2 construct: expressed in transfected cells; host or cells: COS1
T2 sequence (P25095 1-359 C76A/L112C/C289A): T1 sequence (P25095 1-359 S115A) with C76A, L112C, A115S, C289A
Description: As we reported previously, the percentage (%) inhibition of ^125I-[Sar^1, Ile^8] AngII binding by methanethiosulphonate ethyl-ammonium (MTSEA^+) reagent was approximately 30% on AT1 receptor, since Cys^76 in TM2 was accessible to water within the ligand pocket. In addition, mechanical stretching increased the accessibility of Cys^289 by inducing a change in the conformation of TM7 [22]. To differentiate between single and multiple movements of one or more native cysteines, we created TM3 residues that were substituted with cysteine one at a time from […] to Phe^117 using the C76A/C289A mutant genetic background and evaluated each triple mutant for MTSEA sensitivity.
Figure 3 Changes in cysteine accessibility in COS1 cells expressing C76A/C289A mutant receptors in which the transmenbrane 3 residues from Ala^106 to Phe^117, except for position 113, were successively replaced by cysteine. 1 µM of ARBs, n=4–9, *p<0.05 vs. no treatment. #p<0.05 vs. C76A/C289A.
The SCAM method has been used to probe relative changes in the conformation of constitutively active AT1 receptor [20]–[22] and other GPCRs, [30] by validating the presence of Cys residues within the ligand pocket. We used a highly reactive, sulfhydryl-specific reaction with methanethiosulfonyl ethyl-ammonium (MTSEA^+), which reacts a billion times faster with water-exposed and ionized Cys than with lipid-exposed and un-ionized Cys. In this reaction, a positively charged sulfonylmethylammonium group is added to a water-exposed Cys. Aliquots of cell membranes are incubated with or without ARBs for 20 min in phosphate buffer at room temperature. The membranes are then diluted with same buffer and centrifuged. After washout the cell membranes, the membranes are incubated with 2.5 mM MTSEA^+ at room temperature for 2 min in HEPES buffer (pH7.4). The Membranes are then diluted with same buffer to stop the reaction and centrifuged. One hundred µl aliquots were used to assay for ^125I-[Sar^1,Ile^8]Ang II binding. The fractional inhibition is calculates 1 − [(specific binding after MTX reagent) / (specific binding without reagent)].

[3] = target: T3, AT1 S105A mutant receptor (Rattus norvegicus, UniProt P25095, S105A); assay: competition binding, S105A mutant; details: for Kd: S105A (S105 in the source), COS1 membranes, read-out: Binding affinity (Kd); for Kd ratio relative to WT (in parentheses): S105A / WT
T3 construct: expressed in transfected cells; host or cells: COS1
T3 sequence (P25095 1-359 S105A): T1 sequence (P25095 1-359 S115A) with S105A, A115S
Experimental: as §1

[4] = target: T4, AT1 wild-type (WT) receptor (Rattus norvegicus, UniProt P25095); assay: 125I-[Sar1,Ile8]AngII competition binding, wild-type receptor; details: for Kd / Kd ratio relative to olmesartan (in parentheses): WT; for Kd: COS1 cell membranes, 100 pM 125I-[Sar1,Ile8]AngII, 1 h 22°C, read-out: Binding affinity (Kd); for Kd ratio relative to olmesartan (in parentheses): compound Kd / olmesartan Kd
T4 construct: expressed in transfected cells; host or cells: COS1
T4 sequence (P25095 1-359): T1 sequence (P25095 1-359 S115A) with A115S
Experimental: as §1

CCCc1nc(C(C)(C)O)c(C(N)=O)n1Cc1ccc(-c2ccccc2-c2nnn[nH]2)cc1 [R239470]
Kd ratio relative to WT (in parentheses) [1]: 1.6 fold | Kd [1]: 1.3 ± 0.4 nM | % inhibition of 125I-[Sar1,Ile8]Ang II binding by MTSEA+ after ligand pre-incubation [2]: significantly lower than that with ligand (-) | Kd [3]: 3.2 ± 2 nM | Kd ratio relative to WT (in parentheses) [3]: 4.0 fold | Kd [4]: 0.8 ± 0.3 nM | Kd ratio relative to olmesartan (in parentheses) [4]: 0.3 fold

CCCc1nc(C(C)(C)O)c(C(N)=O)n1Cc1ccc(-c2cc(Cc3ccc(O)cc3)ccc2-c2nnn[nH]2)cc1 [R794847]
Kd ratio relative to WT (in parentheses) [1]: 3.1 fold | Kd [1]: 150 ± 41 nM | % inhibition of 125I-[Sar1,Ile8]Ang II binding by MTSEA+ after ligand pre-incubation [2]: significantly lower than those with olmesartan and R239470 | Kd [3]: 37 ± 23 nM | Kd ratio relative to WT (in parentheses) [3]: 0.8 fold | Kd [4]: 48 ± 12 nM

CCCc1nc(C(C)(C)O)c(C(=O)O)n1Cc1ccc(-c2ccccc2-c2nnn[nH]2)cc1 [Olmesartan, olmesartan, reference compound]
Kd ratio relative to WT (in parentheses) [1]: 1.3 fold | Kd [1]: 3.1 ± 1.7 nM | % inhibition of 125I-[Sar1,Ile8]Ang II binding by MTSEA+ after ligand pre-incubation [2]: significantly lower than that with ligand (-) | Cysteine accessibility at Leu112 compared to ligand (-) [2]: Less | Cysteine accessibility at Leu112 compared to ligand (-) ([2]; listed as olmesartan): less accessibility | Kd [3]: 6.7 ± 3.8 nM | Kd ratio relative to WT (in parentheses) ([4]; WT / WT): 1.0 fold | Kd [4]: 2.3 ± 0.8 nM | Kd ratio relative to olmesartan (in parentheses) [4]: 1.0 fold

Reference: PMC3375280 (PLoS ONE, 2012)
